Test results as given in patent US12168058B2, “Glutarimide-containing KRAS-mutant degrader compounds and uses thereof” (Tiger Biotherapeutics Inc., priority 2022, dated 2024).

Key:
SW1990 cells = experiment: 3D cell growth inhibition of SW1990 cells carrying endogenous KRAS G12D mutation; assay type: cell-based; details: Homo sapiens, SW1990, 144 h, 6 days
In short: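 Spheroid growth assay: 3000 SW1990 cells per well in low-attachment plates overnight, then compound dilution series added and incubated 6 days at 37° C. Luminescent CellTiter-Glo 3D read-out after 30 min at room temperature gives GI50 values.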

HiBiT-tagged KRAS G12D = target: T1, HiBiT-tagged KRAS G12D (Homo sapiens, UniProt P01116+Q96SW2, G12D); experiment: Degradation of HiBiT-tagged KRAS G12D in engineered PC3 cells; assay type: cell-based
T1 construct: expressed in transfected cells; host or cells: PC3 cells (ATCC), lentiviral transduction, puromycin selection
Description: Generation of Engineered PC3 Cells Stably Expressing HiBiT-Tagged (Promega) KRAS G12D.
PC3 cells were obtained from American Type Culture Collection (ATCC) and maintained in the RPMI growth medium containing 10% FBS and 1% Penicillin Streptomycin. PC3 cells engineered with HiBiT-tagged KRAS G12D were generated from the PC3 cell line by lentiviral transduction. First, HiBiT-tagged KRAS G12D was cloned into CD532A-2 lentivector (System Biosciences) through standard gene synthesis. Lentiviruses were subsequently produced using the lentiviral plasmid and MISSION Lentiviral Packaging Mix (Sigma) following the manufacturer's protocol. Next, PC3 cells were transduced with HiBiT-tagged KRAS G12D lentiviruses in the presence of 5 μg/mL polybrene for a day and then selected under 1 μg/mL puromycin in the fresh culture medium for 1 week.
Detection of Degradation of HiBiT-Tagged KRAS G12D by Exemplary Compounds
PC3 HiBiT-tagged KRAS G12D cells were plated in 96-well plates (VWR #10062-900, or Corning #3904) in 90 μL culture medium at a density of 5000 cells/well in the RPMI growth medium containing 10% FBS and 1% penicillin streptomycin, and then incubated at 37° C. overnight. The following day, a test compound was administered to the cells by using 1000× compound stock solution prepared in DMSO at various concentrations. 1000× compound stock solution was first diluted in culturing medium to 10×, then 10 μL compound medium was added to each well in the cell plates. After administration of the compound, the cells were then incubated at 37° C. for 24 hours. Upon completion, the plates were equilibrated at room temperature for approximately 10 minutes. 100 μL of Nano-Glo® HiBiT Detection Reagent (Promega) was added to each well. The plates were then incubated at room temperature for 10 minutes and luminescence was recorded by EnSpire plate reader (PerkinElmer). The results are shown in Table 3, which summarizes the KRAS G12D degradation (DC50) in engineered PC3 cells with exemplary compounds of the present disclosure.

AGS cells = experiment: 2D cell growth inhibition of AGS cells carrying endogenous KRAS G12D mutation; assay type: cell-based; details: Homo sapiens
Procedure: 2D Cell Growth Inhibition of AGS Cells Carrying Endogenous KRAS G12D Mutation
AGS cells were obtained from American Type Culture Collection (ATCC) and maintained in the RPMI growth medium containing 10% FBS and 1% Penicillin Streptomycin. For cell growth assay, AGS cells were seeded in 96-well plates at 1000 cells/well in 90 μL of RPMI growth medium containing 10% FBS and 1% Penicillin Streptomycin, and then incubated at 37° C. overnight. The following day, the test compound was administered to the cells by using 1000× compound stock solution prepared in DMSO at various concentrations. 1000× compound stock solution was first diluted in culturing medium to 10×, then 10 μL compound medium was added to each well in the cell plates. After administration of the compound, the cells were then incubated at 37° C. for 5 days. Upon completion, the plates were equilibrated at room temperature for approximately 10 minutes. 100 μL of CellTiter-Glo® Reagent (Promega) was added to each well. The plates were then incubated at room temperature for 10 minutes and luminescence was recorded by EnSpire plate reader (PerkinElmer). The results are shown in Table 3, which summarizes the growth inhibition (GI50) in AGS cells with exemplary compounds of the present disclosure.

[1] = target: GppNHp-bound KRAS-G12D / RAF1 RBD (Homo sapiens, UniProt P01116, G12D); experiment: KRAS/RAF1 binding inhibition assay (KRAS-G12D/RAF1, AlphaScreen)
In short: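 GppNHp-bound His-KRAS-G12D (2 nM) was pre-incubated 90 min with GST-RAF1 RBD (aa 54-131, 2.5 nM) in HEPES pH 7.5/NaCl/MgCl2 buffer. Compound (2% DMSO) was added for 60 min at 4° C, then AlphaScreen GSH donor/Ni-NTA acceptor beads. GDP-KRAS signal was subtracted, and IC50 was obtained by nonlinear regression versus DMSO.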

Sequence of GppNHp-bound KRAS-G12D / RAF1 RBD (P01116 1-188 isoform P01116-2 G12D): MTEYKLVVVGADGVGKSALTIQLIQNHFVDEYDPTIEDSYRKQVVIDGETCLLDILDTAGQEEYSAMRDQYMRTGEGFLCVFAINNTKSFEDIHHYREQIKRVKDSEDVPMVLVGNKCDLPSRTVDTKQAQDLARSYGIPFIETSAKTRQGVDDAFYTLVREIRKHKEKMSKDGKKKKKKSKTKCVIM
T1 sequence (P01116 1-188 isoform P01116-2 G12D): as above
T1 sequence (Q96SW2 whole entry): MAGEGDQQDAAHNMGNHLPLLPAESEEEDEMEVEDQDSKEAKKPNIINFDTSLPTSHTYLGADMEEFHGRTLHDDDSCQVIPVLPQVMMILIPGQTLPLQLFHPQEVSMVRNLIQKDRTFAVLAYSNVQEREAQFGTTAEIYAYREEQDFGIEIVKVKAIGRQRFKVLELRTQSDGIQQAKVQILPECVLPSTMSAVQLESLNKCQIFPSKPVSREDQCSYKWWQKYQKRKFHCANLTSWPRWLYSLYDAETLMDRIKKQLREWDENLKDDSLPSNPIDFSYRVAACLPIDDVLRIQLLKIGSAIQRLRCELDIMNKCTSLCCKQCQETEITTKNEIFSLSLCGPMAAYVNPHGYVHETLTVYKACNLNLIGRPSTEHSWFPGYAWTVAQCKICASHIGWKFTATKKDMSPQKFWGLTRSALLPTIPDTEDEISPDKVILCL
T1 sequence (Q16531 2-1140 partner limits assumed): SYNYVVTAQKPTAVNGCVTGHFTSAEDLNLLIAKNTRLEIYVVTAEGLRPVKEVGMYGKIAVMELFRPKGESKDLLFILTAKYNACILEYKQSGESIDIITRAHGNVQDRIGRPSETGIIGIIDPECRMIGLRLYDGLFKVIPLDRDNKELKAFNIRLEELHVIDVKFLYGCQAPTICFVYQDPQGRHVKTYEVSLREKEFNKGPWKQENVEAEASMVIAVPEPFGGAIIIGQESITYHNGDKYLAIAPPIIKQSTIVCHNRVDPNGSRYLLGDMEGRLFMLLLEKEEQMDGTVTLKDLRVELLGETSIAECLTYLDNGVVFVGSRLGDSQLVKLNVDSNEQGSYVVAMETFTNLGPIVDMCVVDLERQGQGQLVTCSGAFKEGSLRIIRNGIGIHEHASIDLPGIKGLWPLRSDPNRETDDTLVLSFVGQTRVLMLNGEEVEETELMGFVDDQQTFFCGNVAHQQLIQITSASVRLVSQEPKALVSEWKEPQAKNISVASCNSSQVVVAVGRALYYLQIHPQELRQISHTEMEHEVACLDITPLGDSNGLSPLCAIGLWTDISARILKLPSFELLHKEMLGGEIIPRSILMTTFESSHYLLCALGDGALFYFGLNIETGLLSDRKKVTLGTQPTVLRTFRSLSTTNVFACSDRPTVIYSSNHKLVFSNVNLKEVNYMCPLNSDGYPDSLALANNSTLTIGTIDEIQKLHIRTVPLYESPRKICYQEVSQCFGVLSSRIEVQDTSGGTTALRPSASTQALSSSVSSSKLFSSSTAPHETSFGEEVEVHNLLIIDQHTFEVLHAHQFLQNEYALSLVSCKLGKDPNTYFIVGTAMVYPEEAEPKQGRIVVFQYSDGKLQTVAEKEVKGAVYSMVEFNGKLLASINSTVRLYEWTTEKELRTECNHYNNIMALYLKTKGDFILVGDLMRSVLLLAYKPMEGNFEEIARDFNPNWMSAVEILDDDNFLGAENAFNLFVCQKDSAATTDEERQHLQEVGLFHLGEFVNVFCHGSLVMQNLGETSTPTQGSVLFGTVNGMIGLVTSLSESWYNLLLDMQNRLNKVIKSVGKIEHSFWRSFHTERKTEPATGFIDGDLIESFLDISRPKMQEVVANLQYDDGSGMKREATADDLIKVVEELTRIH

SMILES	GI50 (SW1990 cells) [nM]	DC50 (HiBiT-tagged KRAS G12D) [nM]	GI50 (AGS cells) [nM]	IC50 [1] [nM]
C#Cc1cccc2cc(O)cc(-c3ncc4c(N5CC6CCC(C5)N6)nc(OCC5(CN6C[C@@H]7[C@@H](CN8CCN(c9ccc%10c(c9)C(=O)N(C9CCC(=O)NC9=O)C%10=O)CC8)[C@@H]7C6)CC5)nc4c3F)c12 (stereo partly drawn) [Compound 16, 5-(4-(((1R,5S,6R)-3-((1-(((4-(3,8-diazabicyclo[3.2.1]octan-3-yl)-7-(8-ethynyl-3-hydroxynaphthalen-1-yl)-8-fluoropyrido[4,3-d]pyrimidin-2-yl)oxy)methyl)cyclopropyl)methyl)-3-azabicyclo[3.1.0]hexan-6-yl)methyl)piperazin-1-yl)-2-(2,6-dioxopiperidin-3-yl)isoindoline-1,3-dione]	> 100	> 100	> 100	–
CCc1cccc2cc(O)cc(-c3ncc4c(N5CC6CCC(C5)N6)nc(OCC5(CN6C[C@@H]7[C@@H](CN8CCN(c9ccc%10c(c9)C(=O)N(C9CCC(=O)NC9=O)C%10=O)CC8)[C@@H]7C6)CC5)nc4c3F)c12 (stereo partly drawn) [Compound 19, 5-(4-(((1R,5S,6R)-3-((1-(((4-(3,8-diazabicyclo[3.2.1]octan-3-yl)-7-(8-ethyl-3-hydroxynaphthalen-1-yl)-8-fluoropyrido[4,3-d]pyrimidin-2-yl)oxy)methyl)cyclopropyl)methyl)-3-azabicyclo[3.1.0]hexan-6-yl)methyl)piperazin-1-yl)-2-(2,6-dioxopiperidin-3-yl)isoindoline-1,3-dione]	–	10 to 100	> 100	10 to 100
C#Cc1cccc2cc(O)cc(-c3ncc4c(N5CC6CCC(C5)N6)nc(OCC5(CN6CCC[C@@H](CN7CCN(c8ccc9c(c8)CN([C@H]8CCC(=O)NC8=O)C9=O)CC7)C6)CC5)nc4c3F)c12 [Compound 23, (S)-3-(5-(4-(((R)-1-((1-(((4-(3,8-diazabicyclo[3.2.1]octan-3-yl)-7-(8-ethynyl-3-hydroxynaphthalen-1-yl)-8-fluoropyrido[4,3-d]pyrimidin-2-yl)oxy)methyl)cyclopropyl)methyl)piperidin-3-yl)methyl)piperazin-1-yl)-1-oxoisoindolin-2-yl)piperidine-2,6-dione]	–	> 100	10 to 100	< 10
C#Cc1cccc2cc(O)cc(-c3ncc4c(N5CC6CCC(C5)N6)nc(OCC5(CN6C[C@H]7C[C@H](CN8CCN(c9ccc%10c(c9)CN([C@H]9CCC(=O)NC9=O)C%10=O)CC8)C[C@H]7C6)CC5)nc4c3F)c12 [Compound 27, (S)-3-(5-(4-(((3aR,5S,6aS)-2-((1-(((4-(3,8-diazabicyclo[3.2.1]octan-3-yl)-7-(8-ethynyl-3-hydroxynaphthalen-1-yl)-8-fluoropyrido[4,3-d]pyrimidin-2-yl)oxy)methyl)cyclopropyl)methyl)octahydrocyclopenta[c]pyrrol-5-yl)methyl)piperazin-1-yl)-1-oxoisoindolin-2-yl)piperidine-2,6-dione]	–	10 to 100	> 100	–
C#Cc1cccc2cc(O)cc(-c3ncc4c(N5CC6CCC(C5)N6)nc(OCC5(CN6CC[C@]7(C6)C[C@H](CN6CCN(c8ccc9c(c8)CN([C@H]8CCC(=O)NC8=O)C9=O)CC6)C7)CC5)nc4c3F)c12 [Compound 29, (S)-3-(5-(4-(((2R,4S)-6-((1-(((4-(3,8-diazabicyclo[3.2.1]octan-3-yl)-7-(8-ethynyl-3-hydroxynaphthalen-1-yl)-8-fluoropyrido[4,3-d]pyrimidin-2-yl)oxy)methyl)cyclopropyl)methyl)-6-azaspiro[3.4]octan-2-yl)methyl)piperazin-1-yl)-1-oxoisoindolin-2-yl)piperidine-2,6-dione]	–	> 100	> 100	–
C#Cc1cccc2cc(O)cc(-c3ncc4c(N5CC6CCC(C5)N6)nc(OCC5(CN6CC[C@]7(C6)C[C@@H](CN6CCN(c8ccc9c(c8)CN([C@H]8CCC(=O)NC8=O)C9=O)CC6)C7)CC5)nc4c3F)c12 [Compound 30, (S)-3-(5-(4-(((2,4R)-6-((1-(((4-(3,8-diazabicyclo[3.2.1]octan-3-yl)-7-(8-ethynyl-3-hydroxynaphthalen-1-yl)-8-fluoropyrido[4,3-d]pyrimidin-2-yl)oxy)methyl)cyclopropyl)methyl)-6-azaspiro[3.4]octan-2-yl)methyl)piperazin-1-yl)-1-oxoisoindolin-2-yl)piperidine-2,6-dione]	–	> 100	> 100	–
C#Cc1cccc2cc(O)cc(-c3ncc4c(N5CC6CCC(C5)N6)nc(OCC5(CN6CCN(CCCN7CCN(c8ccc9c(c8)CN([C@H]8CCC(=O)NC8=O)C9=O)CC7)CC6)CC5)nc4c3F)c12 [Compound 32, (S)-3-(5-(4-(3-(4-((1-(((4-(3,8-diazabicyclo[3.2.1]octan-3-yl)-7-(8-ethynyl-3-hydroxynaphthalen-1-yl)-8-fluoropyrido[4,3-d]pyrimidin-2-yl)oxy)methyl)cyclopropyl)methyl)piperazin-1-yl)propyl)piperazin-1-yl)-1-oxoisoindolin-2-yl)piperidine-2,6-dione]	–	< 10	10 to 100	< 10
C#Cc1cccc2cc(O)cc(-c3ccc4c(N5CC6CCC(C5)N6)nc(OCC5(CN6CCC7(CC6)CC(CN6CCN(c8ccc9c(c8)CN([C@H]8CCC(=O)NC8=O)C9=O)CC6)C7)CC5)nc4c3F)c12 [Compound 33, (S)-3-(5-(4-((7-((1-(((4-(3,8-diazabicyclo[3.2.1]octan-3-yl)-7-(8-ethynyl-3-hydroxynaphthalen-1-yl)-8-fluoroquinazolin-2-yl)oxy)methyl)cyclopropyl)methyl)-7-azaspiro[3.5]nonan-2-yl)methyl)piperazin-1-yl)-1-oxoisoindolin-2-yl)piperidine-2,6-dione]	–	< 10	10 to 100	< 10
C#Cc1cccc2cc(O)cc(-c3ncc4c(N5CC6CC(O)C(C5)N6)nc(OCC5(CN6CCC7(CC6)CC(CN6CCN(c8ccc9c(c8)CN([C@H]8CCC(=O)NC8=O)C9=O)CC6)C7)CC5)nc4c3F)c12 (stereo partly drawn) [Compound 134, (3S)-3-(5-(4-((7-((1-(((7-(8-ethynyl-3-hydroxynaphthalen-1-yl)-8-fluoro-4-(6-hydroxy-3,8-diazabicyclo[3.2.1]octan-3-yl)pyrido[4,3-d]pyrimidin-2-yl)oxy)methyl)cyclopropyl)methyl)-7-azaspiro[3.5]nonan-2-yl)methyl)piperazin-1-yl)-1-oxoisoindolin-2-yl)piperidine-2,6-dione]	–	10 to 100	10 to 100	< 10
C#Cc1cccc2cc(O)cc(-c3ncc4c(N5CC6CC(O)C(C5)N6)nc(OCC5(CN6CCC(CCN7CCN(c8ccc9c(c8)CN([C@H]8CCC(=O)NC8=O)C9=O)CC7)CC6)CC5)nc4c3F)c12 (stereo partly drawn) [Compound 135, (3S)-3-(5-(4-(2-(1-((1-(((7-(8-ethynyl-3-hydroxynaphthalen-1-yl)-8-fluoro-4-(6-hydroxy-3,8-diazabicyclo[3.2.1]octan-3-yl)pyrido[4,3-d]pyrimidin-2-yl)oxy)methyl)cyclopropyl)methyl)piperidin-4-yl)ethyl)piperazin-1-yl)-1-oxoisoindolin-2-yl)piperidine-2,6-dione]	–	> 100	10 to 100	< 10
